In brackets after ≈: the same amount, converted by molar mass. Like-named read-outs stand apart in the source and are kept apart here.
Legend:
[1] = Stability in simulated intestinal juice (FeSSIF); assay type: in vitro ADME; conditions: FeSSIF pH 5.0, pancreatin 1%
Description: To avoid direct interaction between the active drug and the gut microfloral population, the prodrug should not undergo premature chemical or enzymic cleavage back to the parent dug while within the gut lumen. To confirm this the prodrugs were incubated with USP SGF (simulated gastric fluid), FeSSIF (fed state simulated intestinal fluid) and FaSSIF (fasted state simulated intestinal fluid) and remaining prodrug and any generated active drug assayed by use of a qualified LC-MS/MS analytical method.
Pancreatin was again added at 1%.
To minimize the direct inhibitory action of this drug on gastric emptying/gut motility—and resultant nausea—the prodrug should not undergo premature chemical or enzymic cleavage back to the parent drug while within the gut lumen. To confirm this, the prodrugs were incubated with USP SGF (simulated gastric fluid), FeSSIF (fed state simulated intestinal fluid) and FaSSIF (fasted state simulated intestinal fluid) and remaining prodrug, and any generated active drug, assayed by use of a qualified LC-MS/MS analytical method.
To avoid direct interaction between the active drug and the gut, the prodrug should not undergo premature chemical or enzymic cleavage back to the parent dug while within the gut lumen. To confirm this the prodrugs were incubated with USP SGF (simulated gastric fluid), FeSSIF (fed state simulated intestinal fluid) and FaSSIF (fasted state simulated intestinal fluid) and remaining prodrug and any generated active drug assayed by use of a qualified LC-MS/MS analytical method.

Bacteroides fragilis = test: MIC, clindamycin prodrugs; assay type: cell-based; conditions: for MIC: Bacteroides fragilis
[2] = tested on: Bacteroides thetaiotamicron; test: MIC, clindamycin prodrugs; assay type: cell-based; conditions: for MIC: Bacteroides
[3] = tested on: Bifidobacterium adolescentis; test: MIC, clindamycin prodrugs; assay type: cell-based
Bifidobacterium dentium = test: MIC, clindamycin prodrugs; assay type: cell-based
Bifidobacterium longum = test: MIC, clindamycin prodrugs; assay type: cell-based
Clostridium perfringens = test: microbe, parasite or virus in culture; assay type: cell-based; conditions: for MIC: Clostridium perfringens
Clostridium sporogenes = test: MIC, clindamycin prodrugs; assay type: cell-based; conditions: ATCC 3584
Eggerthella lenta = test: MIC, clindamycin prodrugs; assay type: cell-based
[4] = tested on: Peptostreptococcus anaerobius; test: MIC, clindamycin prodrugs; assay type: cell-based; conditions: NCTC 11460
[5] = tested on: Prevotella melaninogenicus; test: MIC, clindamycin prodrugs; assay type: cell-based
Propionibacterium acnes = test: MIC, clindamycin prodrugs; assay type: cell-based; conditions: for MIC: Cutibacterium acnes
Veillonella atypical = test: MIC, clindamycin prodrugs; assay type: cell-based
Veillonella parvula = test: MIC, clindamycin prodrugs; assay type: cell-based
Campylobacter coli = test: MIC, clindamycin prodrugs; assay type: cell-based; conditions: for MIC: Campylobacter coli
Campylobacter jejuni = test: MIC, clindamycin prodrugs; assay type: cell-based; conditions: for MIC: Campylobacter jejuni
Helicobacter pylori = test: MIC, clindamycin prodrugs; assay type: cell-based; conditions: for MIC: Helicobacter pylori
Staphylococcusaureus = test: MIC, clindamycin prodrugs; assay type: cell-based
[6] = tested on: Staphylococcus epidermidis; test: MIC, clindamycin prodrugs; assay type: cell-based
[7] = tested on: Staphylococcus haemolyticus; test: MIC, clindamycin prodrugs; assay type: cell-based
Streptococcus pneumoniae = test: MIC, clindamycin prodrugs; assay type: cell-based; conditions: for MIC: Streptococcus pneumoniae
Streptococcus pyogenes = test: MIC, clindamycin prodrugs; assay type: cell-based
Group C Streptococcus = test: MIC, clindamycin prodrugs; assay type: cell-based
Clostridium novyi = conditions: ATCC 19402
Clostridium sordellii = conditions: NCTC 13356
[8] = tested on: Fusobacterium necrophorum; conditions: clinical isolate
[9] = tested on: Peptostreptococcus micros; conditions: clinical isolate
[10] = tested on: Porphyromonas endodontalis; conditions: clinical isolate
Prevotella bivia = conditions: ATCC 29303
Prevotella oralis = conditions: clinical isolate
[11] = tested on: Staphylococcus saprophyticus; conditions: antibiotic susceptible clinical isolate
Enterococcus faecalis = conditions: ATCC 29212 antibiotic-susceptible type strain
Enterococcus faecium = conditions: vancomycin-susceptible clinical isolate
Corynebacterium jeikeium = conditions: antibiotic-susceptible clinical isolate
Listeria monocytogenes = conditions: antibiotic-susceptible clinical isolate
Group G Streptococcus = conditions: antibiotic-susceptible clinical isolate
[12] = antibiotic-susceptible clinical isolate
[13] = clinical isolate (second listed, r38)
[14] = antibiotic susceptible clinical isolate
[15] = methicillin-resistant clinical isolate
[16] = Macrolide (MLS) resistant clinical isolate
[17] = read-out: Minimum inhibitory concentration

## CCCC1CC(C(=O)NC(C(C)Cl)C2OC(SC)C(OC(=O)CCCC(=O)Nc3ccc(C(=O)O)cc3)C(O)C2O)N(C)C1.O=C(O)C(F)(F)F (centres unmarked) [Clindamycin glutaryl PABA ester, Clindamycin-2-(glutaryl-PABA) ester trifluoroacetate]
[1]
  Simulated intestinal juice (2 h, 37° C.) (FeSSIF) % active drug generated: <1%
Bacteroides fragilis; ATCC 25285
  Minimum inhibitory concentration: 64 µg/mL
Bacteroides fragilis; clinical isolate
  Minimum inhibitory concentration: 16 µg/mL
[2]; ATCC 29741
  Minimum inhibitory concentration: >64 µg/mL
[2]; NCTC 10582
  Minimum inhibitory concentration: >64 µg/mL
[3]; NCTC 11814
  Minimum inhibitory concentration: 2 µg/mL
Bifidobacterium dentium; NCTC 11816
  Minimum inhibitory concentration: 2 µg/mL
Bifidobacterium longum; NCTC 11818
  Minimum inhibitory concentration: 2 µg/mL
Clostridium perfringens; ATCC 13124
  Minimum inhibitory concentration: 8 µg/mL
Clostridium perfringens; [12]
  Minimum inhibitory concentration: 8 µg/mL
Clostridium sporogenes
  Minimum inhibitory concentration: >64 µg/mL
Eggerthella lenta; ATCC 43055
  Minimum inhibitory concentration: 16 µg/mL
Eggerthella lenta; clinical isolate
  Minimum inhibitory concentration: 16 µg/mL
[4]
  Minimum inhibitory concentration: 32 µg/mL
[5]; clinical isolate (first listed, r37)
  Minimum inhibitory concentration: 0.5 µg/mL
[5]; [13]
  Minimum inhibitory concentration: 1 µg/mL
Propionibacterium acnes
  Minimum inhibitory concentration: 8 µg/mL
Propionibacterium acnes; clinical isolate MIC clindamycin 0.5 mg/L
  Minimum inhibitory concentration: 8 µg/mL
Veillonella atypical; NCTC 11830
  Minimum inhibitory concentration: 4 µg/mL
Veillonella parvula; NCTC 11810
  Minimum inhibitory concentration: 4 µg/mL
Campylobacter coli; ATCC 33559
  Minimum inhibitory concentration: ≦0.03 ug/mL
Campylobacter coli; clinical isolate
  Minimum inhibitory concentration: 0.06 µg/mL
Campylobacter jejuni; ATCC 33560
  Minimum inhibitory concentration: ≦0.03 ug/mL
Campylobacter jejuni; clinical isolate
  Minimum inhibitory concentration: ≦0.03 ug/mL
Helicobacter pylori; ATCC 43504
  Minimum inhibitory concentration: ≦0.03 ug/mL
Helicobacter pylori; clinical isolate (r56)
  Minimum inhibitory concentration: ≦0.03 ug/mL
Helicobacter pylori; clinical isolate (r57)
  Minimum inhibitory concentration: ≦0.03 ug/mL
Helicobacter pylori; clinical isolate (r100)
  Minimum inhibitory concentration: ≦0.03 ug/mL
Helicobacter pylori; clinical isolate (r101)
  Minimum inhibitory concentration: ≦0.03 ug/mL
Staphylococcusaureus; ATCC 25923 - antibiotic-susceptible type strain
  Minimum inhibitory concentration: 4 µg/mL
Staphylococcusaureus; ATCC 29213 - antibiotic-susceptible type strain
  Minimum inhibitory concentration: 4 µg/mL
Staphylococcusaureus; ATCC 43300 - methicillin-resistant type strain
  Minimum inhibitory concentration: >64 µg/mL
[6]; [14]
  Minimum inhibitory concentration: 4 µg/mL
[6]; [15]
  Minimum inhibitory concentration: 8 µg/mL
[7]; [14]
  Minimum inhibitory concentration: 4 µg/mL
Streptococcus pneumoniae; ATCC 49619 antibiotic-susceptible type strain
  Minimum inhibitory concentration: 2 µg/mL
Streptococcus pneumoniae; penicillin-susceptible clinical isolate
  Minimum inhibitory concentration: 1 µg/mL
Streptococcus pyogenes; [16]
  Minimum inhibitory concentration: 4 µg/mL
Streptococcus pyogenes; [12]
  Minimum inhibitory concentration: 2 µg/mL
Group C Streptococcus; [12]
  Minimum inhibitory concentration: 2 µg/mL
Clostridium novyi
  Minimum inhibitory concentration: 4 µg/mL
Clostridium sordellii
  Minimum inhibitory concentration: >64 µg/mL
[8]
  Minimum inhibitory concentration: 1 µg/mL
[9]
  Minimum inhibitory concentration: 8 µg/mL
[10]
  Minimum inhibitory concentration: 0.12 µg/mL
Prevotella bivia
  Minimum inhibitory concentration: 1 µg/mL
Prevotella oralis
  Minimum inhibitory concentration: ≦0.03 ug/mL
[11]
  Minimum inhibitory concentration: 4 µg/mL
Enterococcus faecalis
  Minimum inhibitory concentration: >64 µg/mL
Enterococcus faecium
  Minimum inhibitory concentration: >64 µg/mL
Corynebacterium jeikeium
  Minimum inhibitory concentration: >64 µg/mL
Listeria monocytogenes
  Minimum inhibitory concentration: 32 µg/mL
Group G Streptococcus
  Minimum inhibitory concentration: 2 µg/mL

## CCC[C@@H]1C[C@@H](C(=O)N[C@@H]([C@H]2O[C@H](SC)[C@H](O)[C@@H](O)[C@H]2O)[C@H](C)Cl)N(C)C1 [Clindamycin, clindamycin, reference compound]
Bacteroides fragilis; ATCC25285, read-out: Minimum inhibitory concentration
  MIC: 0.5 µg/mL (≈ 1.18 µM)
Bacteroides fragilis; [17]
  MIC: 0.12 µg/mL (≈ 0.282 µM)
[2]; ATCC29741, read-out: Minimum inhibitory concentration
  MIC: 2 µg/mL (≈ 4.71 µM)
[2]; NCTC10582, read-out: Minimum inhibitory concentration
  MIC: 1 µg/mL (≈ 2.35 µM)
[3]; Bifidobacterium adolescentis, NCTC11814, read-out: Minimum inhibitory concentration
  MIC: ≤ 0.03 µg/mL
Bifidobacterium dentium; Bifidobacterium dentium, NCTC11816, read-out: Minimum inhibitory concentration
  MIC: ≤ 0.03 µg/mL
Bifidobacterium longum; Bifidobacterium longum, NCTC11818, read-out: Minimum inhibitory concentration
  MIC: 0.12 µg/mL (≈ 0.282 µM)
Clostridium perfringens; ATCC13124, read-out: Minimum inhibitory concentration
  MIC: 0.06 µg/mL (≈ 0.141 µM)
Clostridium perfringens; [17]
  MIC: 0.06 µg/mL (≈ 0.141 µM)
Clostridium sporogenes; Clostridium sporogenes, ATCC3584, read-out: Minimum inhibitory concentration
  MIC: 32 µg/mL (≈ 75.3 µM)
[5]; Prevotella, read-out: Minimum inhibitory concentration
  MIC: ≤ 0.03 µg/mL
[5]; [13]
  Minimum inhibitory concentration: ≦0.03 ug/mL
Propionibacterium acnes; read-out: Minimum inhibitory concentration, clinical isolate MIC clindamycin 0.5 mg/L
  MIC: 0.12 µg/mL (≈ 0.282 µM)
Propionibacterium acnes; read-out: Minimum inhibitory concentration, clinical isolate MIC clindamycin […]
  MIC: 0.06 µg/mL (≈ 0.141 µM)
Veillonella atypical; Veillonella, NCTC11830, read-out: Minimum inhibitory concentration
  MIC: 0.06 µg/mL (≈ 0.141 µM)
Veillonella parvula; Veillonella parvula, NCTC11810, read-out: Minimum inhibitory concentration
  MIC: ≤ 0.03 µg/mL
Campylobacter coli; ATCC33559, read-out: Minimum inhibitory concentration
  MIC: ≤ 0.03 µg/mL
Campylobacter coli; [17]
  MIC: 0.06 µg/mL (≈ 0.141 µM)
Campylobacter jejuni; ATCC33560, read-out: Minimum inhibitory concentration
  MIC: ≤ 0.03 µg/mL
Campylobacter jejuni; [17]
  MIC: ≤ 0.03 µg/mL
Helicobacter pylori; ATCC43504, read-out: Minimum inhibitory concentration
  MIC: ≤ 0.03 µg/mL
Helicobacter pylori; [17]
  MIC: ≤ 0.03 µg/mL
Helicobacter pylori; clinical isolate (r56)
  Minimum inhibitory concentration: ≦0.03 ug/mL
Helicobacter pylori; clinical isolate (r57)
  Minimum inhibitory concentration: ≦0.03 ug/mL
Helicobacter pylori; clinical isolate (r101)
  Minimum inhibitory concentration: ≦0.03 ug/mL
Staphylococcusaureus; read-out: Minimum inhibitory concentration, ATCC 25923 - antibiotic-susceptible type strain
  MIC: 0.06 µg/mL (≈ 0.141 µM)
Staphylococcusaureus; read-out: Minimum inhibitory concentration, ATCC 29213 - antibiotic-susceptible type strain
  MIC: 0.06 µg/mL (≈ 0.141 µM)
Staphylococcusaureus; read-out: Minimum inhibitory concentration, ATCC 43300 - methicillin-resistant type strain
  MIC: > 64 µg/mL
[6]; Staphylococcus epidermidis, read-out: Minimum inhibitory concentration
  MIC: 0.12 µg/mL (≈ 0.282 µM)
[6]; [15]
  Minimum inhibitory concentration: 0.12 µg/mL (≈ 0.282 µM)
[7]; Staphylococcus haemolyticus, read-out: Minimum inhibitory concentration
  MIC: 0.06 µg/mL (≈ 0.141 µM)
Streptococcus pneumoniae; ATCC49619, read-out: Minimum inhibitory concentration
  MIC: ≤ 0.03 µg/mL
Streptococcus pneumoniae; [17]
  MIC: ≤ 0.03 µg/mL
Streptococcus pyogenes; [16]
  Minimum inhibitory concentration: ≦0.03 ug/mL
Streptococcus pyogenes; Streptococcus pyogenes, read-out: Minimum inhibitory concentration
  MIC: ≤ 0.03 µg/mL
Group C Streptococcus; Streptococcus, read-out: Minimum inhibitory concentration
  MIC: ≤ 0.03 µg/mL

Reference: patent US20120202756A1, “USE OF PRODRUGS TO AVOID GI MEDIATED ADVERSE EVENTS” (priority 2009, published 2012)
